Source: paper PMC4957937 (Bioorganic & medicinal chemistry, 2016)
Starred links: 1 amine or outer side, 2 acyl side, 3 side chain; linkers in the order of their positions; H or OH if unused. Non-standard residues stand in square brackets, D forms with d. Residues, ends and D or L forms follow the SMILES beside them. Ahppa(3S,4S) = O=C(C[C@H](O)[C@H](Cc1ccccc1)N[*:1])[*:2]; dNMeF = CN[C@H](Cc1ccccc1)C(=O)O; NMeQ = CN[C@@H](CCC(N)=O)C(=O)O; Lac = C[C@H](O)C(=O)O

Molecular target: BACE1 (Homo sapiens, UniProt P56817)
Assay: Antiproteolytic activity assay against BACE1
Assay type: biochemical
Conditions: fold less potent against BACE1 than against cathepsins D and E

BACE1, sequence (P56817 46-501): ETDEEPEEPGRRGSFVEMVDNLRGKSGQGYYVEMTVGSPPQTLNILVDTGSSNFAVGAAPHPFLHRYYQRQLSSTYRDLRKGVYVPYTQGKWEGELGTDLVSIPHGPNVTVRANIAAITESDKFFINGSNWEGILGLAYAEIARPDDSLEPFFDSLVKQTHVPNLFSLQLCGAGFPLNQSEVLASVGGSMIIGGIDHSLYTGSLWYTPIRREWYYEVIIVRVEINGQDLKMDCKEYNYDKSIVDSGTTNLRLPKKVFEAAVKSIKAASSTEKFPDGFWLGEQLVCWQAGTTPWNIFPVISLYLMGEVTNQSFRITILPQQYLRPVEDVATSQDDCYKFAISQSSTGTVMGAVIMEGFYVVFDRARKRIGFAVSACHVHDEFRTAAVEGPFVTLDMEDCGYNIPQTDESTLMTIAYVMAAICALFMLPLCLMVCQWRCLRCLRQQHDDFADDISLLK

- Selectivity ratio IC50 BACE1/CatD–E: 12–30
SMILES: CC[C@H](C)[C@H](NC(=O)C[C@H](O)[C@H](Cc1ccccc1)NC(=O)[C@H](CCC(N)=O)N(C)C(=O)[C@@H](NC(=O)[C@H](C)O)[C@@H](C)CC)C(=O)NCC(=O)N(C)[C@H](Cc1ccccc1)C(=O)N1CCC[C@H]1C(=O)OC [Tasiamide F (1), Tasiamide F] (H-[Lac]I[NMeQ][Ahppa(3S,4S)]IG[dNMeF]P-OMe)
